In PubChem BioAssay (NCI):
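Each compound was tested at five concentrations against cells in 96-well plates for 48 hours. GI50 is the concentration that inhibits growth by half. At the TGI there is no net growth.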

Columns and labels:
Assay in all cases: inhibition of tumour cell growth, NCI panel, 48 h
[1] = system: RXF 393 renal
[2] = system: LOX IMVI melanoma
[3] = system: KM12 colon
[4] = system: HOP-92 NSCLC
[5] = system: M14 melanoma
[6] = system: CCRF-CEM leukemia
[7] = system: UACC-62 melanoma
[8] = system: COLO 205 colon
[9] = system: OVCAR-8 ovarian

Row | Structure (SMILES) | TGI [1] [µM] | TGI [2] [µM] | TGI [3] [µM] | TGI [4] [µM] | TGI [5] [µM] | TGI [6] [µM] | TGI [7] [µM] | TGI [8] [µM] | TGI [9] [µM] | GI50 [1] [µM] | GI50 [2] [µM] | GI50 [3] [µM] | GI50 [4] [µM] | GI50 [5] [µM] | GI50 [6] [µM] | GI50 [7] [µM] | GI50 [8] [µM] | GI50 [9] [µM]
1 | ON(Cc1ccccc1)C(=S)c1ccccc1 | 85.3 | > 46.9 | > 63.6 | > 100 | 55.6 | > 27 | 25.4 | > 93.8 | > 69.8 | – | – | – | – | – | – | – | – | –
2 | COc1ccc(C(c2ccc(OCCN(C)C)cc2)c2cc3ccccc3c3ccccc23)cc1 (stereo not given) | 2.82 | 3.06 | 3.39 | 2.64 | 3.25 | 3.91 | 3.52 | 3.47 | 3.17 | 1.44 | 1.64 | 1.8 | 1.31 | 1.73 | 1.8 | 1.81 | 1.77 | 1.7
3 | COC(=O)C1=C(c2ccc(OC)c(OC)c2)OC(c2cc(OC)c(OC)c(OC)c2)C1 (stereo not given) | 66.9 | > 100 | > 100 | 65.2 | > 100 | > 100 | – | – | > 100 | – | – | – | – | – | – | – | – | –
4 | CCOc1ccc2c(c1)[n+]([O-])c(-c1ccc(Br)cc1)c(N)[n+]2[O-] | – | > 100 | > 100 | – | > 100 | > 100 | > 100 | 52.4 | > 100 | – | – | – | – | – | – | – | – | –
5 | O=C1NC(=O)C(=Nc2cccc3c(=O)[nH][nH]c(=O)c23)C(c2nc3ccccc3s2)C1=O (stereo not given) | > 100 | – | > 100 | > 100 | > 100 | > 100 | > 100 | > 100 | > 100 | – | – | – | – | – | – | – | – | –
6 | Cn1nc(-c2ccc(Cl)cc2)nc2c(=O)n(C)c(=O)nc1-2 | 1.57 | 1.61 | 5.5 | 4.99 | 1.41 | 50 | 1.68 | 1.93 | 3.51 | 0.781 | 0.601 | 1.35 | 1.72 | 0.75 | 1.49 | 0.745 | 0.491 | 0.976
7 | CN(C)C(=Nc1nc(=[N+](C)C)ss1)N(C)C | > 100 | – | > 100 | > 100 | > 100 | > 100 | > 100 | – | > 100 | – | – | – | – | – | – | – | – | –
8 | C#CC[N+](C)(CC#C)CC#C | > 100 | > 100 | > 100 | > 100 | > 100 | > 100 | > 100 | > 100 | > 100 | – | – | – | – | – | – | – | – | –
9 | C=C1C(=O)O[C@H]2[C@H]1CC/C(COC(=O)CCSCCC(=O)OC/C1=C/CC[C@@]3(C)O[C@H]3[C@H]3OC(=O)C(=C)[C@@H]3CC1)=C\CC[C@@]1(C)O[C@@H]21 | 2.15 | 1.6 | 3.52 | 2.7 | 3.35 | 1.25 | 3.61 | 1.97 | 3.96 | 0.767 | 0.44 | 1.75 | 1.26 | 1.52 | 0.314 | 1.7 | 0.558 | 1.57
10 | Cc1ccc(NC(=O)C2C(=O)N(c3ccc(C)c(C)c3)C(=O)/C2=N\NC(N)=O)cc1C (stereo not given) | > 100 | > 100 | > 100 | > 100 | > 100 | > 100 | > 100 | > 100 | > 100 | – | – | – | – | – | – | – | – | –
11 | Cc1c(CCO)c(=O)n2c([nH]c3ccccc32)c1C#N | > 100 | > 100 | > 100 | > 100 | > 100 | > 100 | > 100 | > 100 | > 100 | – | – | – | – | – | – | – | – | –
12 | Cn1c(=O)c(NC(=O)C(Cl)(Cl)Cl)nc2ccccc21 | > 100 | > 100 | > 100 | – | > 100 | > 100 | > 100 | > 100 | > 100 | – | – | – | – | – | – | – | – | –
13 | NC(=O)c1ccccc1NC(=O)C(=O)Cc1nc2ccccc2[nH]c1=O | > 100 | > 100 | > 100 | > 100 | > 100 | > 100 | > 100 | > 100 | > 100 | – | – | – | – | – | – | – | – | –
14 | O=C(CSc1ncn[nH]1)C[P+](c1ccccc1)(c1ccccc1)c1ccccc1 | > 100 | > 100 | > 100 | > 100 | > 100 | > 100 | > 100 | > 100 | > 100 | – | – | – | – | – | – | – | – | –
15 | CN(C)c1nnnn1-c1c(N)n(C)c(=O)n(C)c1=O | – | > 100 | > 100 | > 100 | – | > 100 | > 100 | > 100 | > 100 | – | – | – | – | – | – | – | – | –
16 | CN(C)c1ccc(/C=C/c2ccc(/C=C/c3ccc(N(C)C)cc3)cc2)cc1 | > 100 | > 100 | > 100 | > 100 | > 100 | > 100 | > 100 | > 100 | > 100 | – | – | – | – | – | – | – | – | –
17 | COc1ccccc1C1=C(Nc2ccccc2)C(=O)NC1=O | > 25 | > 25 | > 25 | – | > 25 | – | > 25 | > 25 | > 25 | 7.87 | > 25 | > 23.8 | – | > 25 | – | > 25 | > 18.9 | > 25
